Results taken from patent US20060008891A1, “Cathepsin G-related peptides as modulators of formylpeptide receptors (FPR)” (The Government of USA as repersented by the Secretary, …, priority 2004, published 2006).
“And” between values parts separate entries of the source, which are not always exact repeats. Equal entries are not always repeated. “Also recorded” adds a separate entry of the source.

Experiments:
[1] = system: monocytes; assay: Chemotaxis assay, monocytes; format: cell-based, human
Method: Human PBMC were isolated from leukopacks obtained through the courtesy of Transfusion Medicine Department, National Institutes of Health Clinical Center (Bethesda, Md.) by Ficoll-Hypaque density gradient centrifugation. Monocytes were purified from human PBMC by Percoll gradient to yield>90% pure preparations. […] H. Ali and R. Snyderman, Duke University (Durham, N.C.) and maintained in the presence of 0.8 mg/ml geneticin (G418, Life Technologies, Rockville, Md.) in DMEM supplemented with 10% FCS. B. Chemotaxis assay Migration of phagocytes and ETFR cells was assessed using a 48-well microchemotaxis chamber (Neuroprobe, Cabin John, Md.) as previously described (Hu et al. (2001) J Leukoc Biol 70 15512). Briefly, different concentrations of stimulants were placed in the wells of the lower compartment of the chamber, and 50 μl cells (1.5×10^6 cells/ml for monocyte and neutrophil, 1×10^6 ETFR cells/ml) were added to the wells of the upper compartment. The lower and upper compartments were separated by either a 5-μm (for monocyte) or a 10-μm pore size, collagen-coated (for ETFR cells) polycarbonate filter (Osmonics, Livermore, Calif.). After incubation at 37° C. in humidified air with 5% CO2 (60 min for neutrophils, 90 min for monocytes, 4.5 h for ETFR cells), the filter was removed and stained, and the cells migrating across the filter were counted with light microscopy. The results are presented as the mean number of cells (±SD) in three high power fields (HPFs). […] After thorough washing with cold medium (RPMI 1640, 1% BSA), the cells were resuspended and assayed. To measure the effect of various signaling inhibitors, unless otherwise indicated, the cells were pre-incubated at 37° C. for 60 min with the inhibitors, and were then added to the upper wells of the chemotaxis chamber.

[2] = system: CHI-39; assay: Chemotaxis of HEK293 cells transfected with chimeric receptor CHI-39; format: cell-based, human; conditions: N-terminus of FPR replaced by FPRL1 sequences
Method: Human PBMC were isolated from leukopacks obtained through the courtesy of Transfusion Medicine Department, National Institutes of Health Clinical Center (Bethesda, Md.) by Ficoll-Hypaque density gradient centrifugation. Monocytes were purified from human PBMC by Percoll gradient to yield>90% pure preparations. […] H. Ali and R. Snyderman, Duke University (Durham, N.C.) and maintained in the presence of 0.8 mg/ml geneticin (G418, Life Technologies, Rockville, Md.) in DMEM supplemented with 10% FCS. B. Chemotaxis assay Migration of phagocytes and ETFR cells was assessed using a 48-well microchemotaxis chamber (Neuroprobe, Cabin John, Md.) as previously described (Hu et al. (2001) J Leukoc Biol 70 15512). […] After incubation at 37° C. in humidified air with 5% CO2 (60 min for neutrophils, 90 min for monocytes, 4.5 h for ETFR cells), the filter was removed and stained, and the cells migrating across the filter were counted with light microscopy. […]
The chimeric receptor was stably transfected into HEK293 cells (a human embryo kidney cell line) and the chemotactic activity of CaG on the transfected cells was measured and compared to the chemotactic activity of CaG on […] cells transfected with wild type FPR, using the assay for chemotaxis described in Example IB. […]

[3] = target: T1, FPR (Homo sapiens, UniProt P21462); assay: Calcium flux (Fura-2), ETFR cells; format: cell-based; conditions: CaG 10 μg/ml
T1 construct: expressed in transfected cells; host or cells: Rat basophilic leukemia (RBL) cells, stably transfected (ETFR cells); gift of H. Ali and R. Snyderman, Duke University
T1 sequence (P21462 1-350): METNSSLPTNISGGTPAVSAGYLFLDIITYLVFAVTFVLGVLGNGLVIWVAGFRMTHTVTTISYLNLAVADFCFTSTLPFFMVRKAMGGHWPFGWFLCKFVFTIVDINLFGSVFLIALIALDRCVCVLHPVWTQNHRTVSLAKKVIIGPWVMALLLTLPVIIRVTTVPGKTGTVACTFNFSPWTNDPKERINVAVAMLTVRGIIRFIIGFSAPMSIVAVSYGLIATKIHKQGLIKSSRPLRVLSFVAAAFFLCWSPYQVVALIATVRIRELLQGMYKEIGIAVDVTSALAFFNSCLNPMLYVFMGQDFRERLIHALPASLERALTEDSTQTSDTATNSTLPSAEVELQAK
Method: Monocytes or ETFR cells (10^7 cells/ml in RPMI 1640 containing 10% FBS) were loaded with 5 μM Fura-2 at room temperature (30 min for monocytes, 60 min for ETFR cells) in the dark. The cells were washed and resuspended (0.5×10^6 cells/ml) in saline buffer (138 mM NaCl, 6 mM KCl, 1 mM CaCl2, 10 mM HEPES, 5 mM glucose, and 1% BSA, pH 7.4). Two milliliters of the cell suspension were transferred to a quartz cuvette, which was placed in a luminescence spectrometer LS55 (Perkin-Elmer, Beaconsfield, UK). Calcium mobilization was measured by recording the ratio of the fluorescence excited at 340 and 380 nm in response to stimulants.

[4] = system: PKC isozymes; assay: PKC translocation in parental RBL cells; format: cell-based, rat; conditions: 100 nM fMLF, 10 μg/ml CaG or PMA 500 nM, 37° C. 10 min

With “CaG: Cathepsin G, serine protease purified from neutrophil granules, purchased from Athens Research & Technology” as the substance, how does the “concentration of maximal activity in monocyte migration” value ([1]; human monocytes) read?
The value was 5 μg/ml and 200 nM.

And the “monocyte migration induced by stimulant” value ([1]; human monocytes)?
Its value is “dose-dependently induced monocyte migration”.

What about the “concentration range potently chemotactic” value ([1]; monocytes) of the same substance?
The value was 4 to 400 nM.

And the “attenuation of monocyte chemotaxis to fMLF after preincubation” value ([1]; preincubated with CaG 10 μg/ml 30 min 37° C., low concentrations of fMLF)?
The value was “able to attenuate monocyte chemotaxis to low concentrations of fMLF”.

What about the “chemotactic activity on CHI-39-transfected HEK293 cells” value [2] of the same substance?
The value was “exhibit robust migration in response to CaG”.

And the “Ca2+ flux” value [3]?
Its value is “weak inducer of Ca^2+ flux; also recorded: induced a measurable level of Ca flux”.

What about the “attenuation of Ca2+ response to fMLF” value ([3]; 0.1 nM fMLF) of the same substance?
Its value is “attenuated cell response induced by low concentrations of fMLF; also recorded: significantly attenuated cell response to 0.1 nM fMLF”.

What about the “PKC translocation in parental RBL cells” value [4] of the same substance?
The value was “Neither CaG nor fMLF stimulated PKC translocation in parental RBL cells”.
